# Source: publication PMC8179271, “Identification of β-strand mediated protein–protein interaction inhibitors using ligand-directed fragment ligation” (Chemical Science, 2021)
# Where two headings read alike, the source gives them in different places. Residues, ends and D or L forms follow the SMILES beside them. *: point of attachment. FITC = O=C1OC2(c3ccc(O)cc3Oc3cc(O)ccc32)c2ccc(NC(=S)*)cc21; Ahx = NCCCCCC(=O)O
# Assays:
# Type in all cases: binding
# [1] = molecular target: T1, SHANK1 PDZ (Homo sapiens, UniProt Q9Y566); test: Isothermal titration calorimetry (ITC); conditions: for Kd / n (ITC stoichiometry) / ΔH / ΔS: 25 mM Tris pH 7.5, 150 mM NaCl, 25 °C
# T1 construct: Human Shank1 PDZ domain (656-762) was cloned into the pGEX-6P-2 expression vector; GST (N, cleaved yes); made in house; host or cells: E. coli BL21 Gold
# T1 sequence (Q9Y566 656-762): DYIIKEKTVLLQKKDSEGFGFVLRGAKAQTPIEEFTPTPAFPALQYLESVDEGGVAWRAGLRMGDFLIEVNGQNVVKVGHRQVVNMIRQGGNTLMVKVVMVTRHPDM
# Method: Fitted thermograms and thermodynamic signatures for the tested peptides and hydrazones. […] For individual raw ITC data and fitted thermograms see Fig. S14. ^† […]
# Figure S14. Raw ITC data (top) and fitted thermograms (bottom) for the tested hydrazone hits and […]
# 0.75-1 mM peptide or hydrazone solution to 75-150 µM protein.
# (1 picture or pasted object on this page, not shown here)
# 2.5. Isothermal tritration calorimetry
# ITC experiments were carried out using Microcal ITC200i instrument (Malvern) at 25°C […]
# Shank1 PDZ was dialysed against the buffer prior to experiment, lyophilized peptides and hydrazones were dissolved in the same buffer. 75 or […]
# depending on compound solubility, from the syringe using 2 µL injections with 120 s spacing between the injections for 20 injection. Heats of peptide dilution w ere measured by titrating the peptide into buffer and subtracted from each measurement. Dat a was analysed using Microcal Origin 8 and fitt ed to a one-binding site model. […]
# [2] = molecular target: T1, SHANK1 PDZ; test: Fluorescence anisotropy competition assay (FITC-Ahx-TRL-COOH tracer); conditions: 50 mM NH4Ac pH 6.5, 10 mM aniline
# Method: (d) FA competition curves for hybrids from the extended screen. All screening and validation assays were performed in 50 mM NH4Ac buffer, pH 6.5, 10 mM aniline using 1 μM final protein concentration and 10 nM FITC-Ahx-TRL-COOH as tracer at room temperature. […] Anisotropy is expressed relative to the control experiment where no competitor is present. Hit thresholds were defined based on the relative anisotropy of the (i) buffer control (rbuffer − 3σ) and (ii) the TRL control (rTRL − 3σ). Compounds below these thresholds are coloured blue and red respectively.
# (0.22 µm membrane) and applied to glutathione beads and washed with 10 CV 20 mM Tris, pH 8, 500 mM NaCl. GST was cleaved on-column overnight at 4 °C using Prescission protease.
# The eluted fractions were concentrated and purified by size-exclusion chromatography on S75 26/60 pg column in 20 mM Tris, 150 mM NaCl, 5% glycerol pH 7.5 buffer. Collected fractions were analysed by SDS-PAGE and concentrated. Pure protein was analysed by high resolution […]
# determined by UV-VIS spectroscopy using the 8480 M-1 cm-1 extinction coefficient. […]
# 2.3. Aldehyde library selection
# A diverse subset of fragments was selected from commercially available small molecule aldehydes (AldrichCPR, Fluorochem and Acros). Available compounds having one aldehyde functionality were filtered first based on physicochemical properties: 80 Da < MW < 400 Da, HBA, HBD ≤ 3, and clogP ≤ 5. To select a diverse set of compounds , first, binary molecular fingerprint s were generated for each molecule using the FragFp descriptor implemented in DataWarrior (openmolecules.org) , which relies on a predefined substructure fragment library and is used to compare 2D structural similarities. Then, using the same software , structurall y dissimilar subset of compounds was selected based on the molecular fingerprints. Compounds were further excluded based on undesired functional groups and commerical availability , […]
# carboxylic acid functional groups.
# 2.4. Fluorescence anisotropy
# Fluorescence anisotropy assays were performed in 384-well plates (Greiner Bio-one) and the fluorescence anisotropy measured using a Perkin Elmer EnVisionTM 2103 MultiLabel plate reader, with excitation at 480 nm (30 nm bandwidth), polarised dichroic mirror at 505 nm and […]
# °C. Fluorescence anisotropy data was processed as described previously.4 The data from both […]
# the P (perpendicular intensity) and S (parallel intensity) channels, resulting from this measurement and corrected by subtracting the corresponding control wells, were used to calculate the intensity and anisotropy for each well following Equations 1 and 2: […]
# r = anisotropy, I = total intensity, P = perpendicular intensity, S = parallel intensity, G is an […]
# Assays were performed in 50 mM NH4Ac, 10 mM aniline, pH 6.5 buffer. Shank 1 PDZ was dialysed into the assay buffer prior to the experiment. […]
# [3] = molecular target: T2, PDZ domain of PSD-95 (PSD-95 PDZ1) (Homo sapiens, UniProt P78352); test: 1H-15N HSQC chemical shift perturbation titration; conditions: Fig. S24
# T2 construct: made in house
# T2 sequence (P78352 with tags, fused parts or gaps): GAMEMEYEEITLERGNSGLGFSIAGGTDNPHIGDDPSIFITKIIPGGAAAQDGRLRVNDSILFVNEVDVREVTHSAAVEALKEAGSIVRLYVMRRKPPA
# Text: Since Class I PDZ domains bind to consensus sequences,[71,72] we set out to further assess the selectivity of the peptide-fragment hybrids against another Class I PDZ domain. We compared the ability to bind to SHANK1 PDZ against the ability to bind to the PDZ domain of PSD-95, a therapeutically important target in neuronal diseases and cancer.[58] We monitored the binding using chemical shift perturbations in the ^1H–^15N HSQC spectra of the PDZ domain of PSD-95 (Fig. S22, S23, Tables S7 and S8 ^†). […] However, PSD-95 also lacks the patch of cationic residues proximal to the C-terminal carboxylate binding site. Such a result provides confidence that the dynamic ligation screening approach used here can encode and retain selectivity.
# PSD 95 PDZ1 amino acid sequence
# Figure S22. Overlay of plots for 4-A047 with Ligand:protein ratio ranging from 1:1 to 100:1. The gradual change in chemical shifts of limited residues indicate that the binding of the ligand is specific and to the putative ligand binding site.
# Figure S23. Mapping of chemical shift changes onto the structure of PSD95 PDZ1 using PDB Accession Code 2KA9 (cypin peptide in magenta). Residues whose chemical shifts are affected are coloured yellow; these residues line the binding site. […]
# Table S7. Concentration dependent shift changes of compound 4-A047 for a few residues whose chemical shifts have been assigned […]
# [4] = molecular target: T1, SHANK1 PDZ; test: Fluorescence anisotropy direct titration with FITC-labelled GKAP tracer
# Method: A diversity-based selection was performed on commercially available aldehyde fragments obeying guidelines for fragment-based drug design,[75] resulting in a small library of 129 compounds (A001–A129, Table S1 and Fig. S1 ^†). […] To allow us to perform the hybrid formation and screening in the presence of the target protein in a single step, it was necessary to first establish that SHANK1 PDZ was still able to bind to its natural ligand under the same conditions.
# Figure S2. Rate of hydrazone exchange in 50 mM ammonium-acetate (NH4Ac), pH 6.5, 10 mM aniline buffer using 100 µM compound 4-A001 and 5 equivalents of three different aldehydes (corresponding to R2 groups) at room temperature. Hydrazone exchange was monitored by LC -MS; peaks for extracted ion chromatograms were integrated and normalized . […]
# Figure S3. Fluorescence anisotropy direct titration of S HANK1 PDZ in 50 mM NH4Ac, pH 6.5 10 mM aniline containing buffer using 50 nM FITC-Ahx-GKAP as tracer. Plate was read after 24 hr incubation […]
# Assays were performed in 50 mM NH4Ac, 10 mM aniline, pH 6.5 buffer. […] Fluorescence anisotropy direct titration assays were performed with protein concentration diluted over 24 points using ½ dilutions. […]
# final protein concentration. […] For control wells, the tracer peptide was replaced with an identical volume of assay buffer and plates were read immediately, and after an hour or after 24 hours . […]
# [5] = Table S2, relative to core Ac-TRL-OH motif
# [6] = 1 µM Shank1 PDZ, 10 nM FITC-Ahx-TRL-COOH, plates read immediately, room temperature, read-out: IC50 (Fig. S4, parent peptides and benzaldehyde hydrazones)
# [7] = x-A001 incubated with 5 equiv aldehyde in presence of protein for 24 h, then 10 nM FITC-Ahx-TRL-COOH, SHANK1 PDZ 1 M, read-out: IC50 (Fig. S7-S9, S11, S12, hybrids selected for validation from single point screens)
Molecule,Kd [1],"IC50 [2, 7]",further results
CC(C)C[C@H](NC(=O)[C@H](CCCNC(=N)N)NC(=O)[C@@H](NC(=O)CCC(=O)NN=Cc1ccccc1)[C@@H](C)O)C(=O)O [3-A001],16 ± 3 µM,–,"n (ITC stoichiometry) [1]: 1.04 ± 0.04; ΔH [1]: -2.32 ± 0.14 kcal/mol; ΔS [1]: 59.0 J mol^−1 K^−1; GE group efficiency (-ΔΔG/ΔNnH) [1, 5]: 0.07; ΔΔG (ΔGCompound-ΔGAc-TRL-OH) [1, 5]: -0.201 kcal/mol; IC50 [2, 6]: 51 ± 3 µM"
CC(C)C[C@H](NC(=O)[C@H](CCCNC(=N)N)NC(=O)[C@@H](NC(=O)CCC(=O)N/N=C/c1ccccc1C(=O)O)[C@@H](C)O)C(=O)O [3-A047],8 ± 1 µM,14 ± 1 µM,–
CC(C)C[C@H](NC(=O)[C@H](CCCNC(=N)N)NC(=O)[C@@H](NC(=O)CCC(=O)N/N=C/c1ccc(C(=O)O)cc1)[C@@H](C)O)C(=O)O [3-A048],10 ± 1 µM,11 ± 1 µM,–
CC(C)C[C@H](NC(=O)[C@H](CCCNC(=N)N)NC(=O)[C@@H](NC(=O)CCC(=O)N/N=C/c1ccc(Cl)cc1C(=O)O)[C@@H](C)O)C(=O)O [3-A144],7.1 ± 0.9 µM,9 ± 1.6 µM,–
CC(C)C[C@H](NC(=O)[C@H](CCCNC(=N)N)NC(=O)[C@@H](NC(=O)CCC(=O)N/N=C/c1cccc(OC(C(=O)O)c2ccccc2)c1)[C@@H](C)O)C(=O)O (stereo partly drawn) [3-A161],4.8 ± 0.4 µM,–,–
CC(C)C[C@H](NC(=O)[C@H](CCCNC(=N)N)NC(=O)[C@@H](NC(=O)CCCC(=O)NN=Cc1ccccc1)[C@@H](C)O)C(=O)O [4-A001],14.8 ± 0.8 µM,–,"IC50 [2, 6]: 19 ± 3 µM"
CC(C)C[C@H](NC(=O)[C@H](CCCNC(=N)N)NC(=O)[C@@H](NC(=O)CCCC(=O)N/N=C/c1ccccc1C(=O)O)[C@@H](C)O)C(=O)O [4-A047],4.6 ± 0.2 µM,7.3 ± 0.6 µM,EC50 [3]: 2400 ± 300 µM
CC(C)C[C@H](NC(=O)[C@H](CCCNC(=N)N)NC(=O)[C@@H](NC(=O)[C@H](CCC(N)=O)NC(=O)[C@H](C)NC(=O)[C@H](CCC(=O)O)NC(=O)CCCCCNC(=S)Nc1ccc2c(c1)C(=O)OC21c2ccc(O)cc2Oc2cc(O)ccc21)[C@@H](C)O)C(=O)O [FITC-Ahx-GKAP] ({FITC-Ahx}-EAQTRL-OH; C-terminus assumed),–,–,"Kd ([4]; 50 mM NH4Ac pH 6.5, 10 mM aniline, 50 nM tracer, read after 24 hr incubation at room temperature, read-out: KD (Fig. S3)): 0.96 ± 0.08 µM; Kd ([4]; KD (initial) of FITC labelled GKAP, pH 6.5, 10 mM aniline, did not significantly change over 24 hours): ~1 µM"
"Ac-EAQTRL-OH [GKAP, Ac-EAQTRL-COOH, reference compound]",–,–,"n (ITC stoichiometry) [1]: 1.07 ± 0.01; ΔH [1]: -7.07 ± 0.096 kcal/mol; ΔS [1]: 9.7 J mol^−1 K^−1; ΔΔG (ΔGCompound-ΔGAc-TRL-OH) [1, 5]: -1.44 kcal/mol"

# The next lines start with results.
Kd [1],"IC50 [2, 7]",Molecule,further results
3.1 ± 0.2 µM,7.5 ± 0.8 µM,CC(C)C[C@H](NC(=O)[C@H](CCCNC(=N)N)NC(=O)[C@@H](NC(=O)CCCC(=O)N/N=C/c1ccc(C(=O)O)cc1)[C@@H](C)O)C(=O)O [4-A048],–
3.1 ± 0.2 µM,3.7 ± 0.4 µM,CC(C)C[C@H](NC(=O)[C@H](CCCNC(=N)N)NC(=O)[C@@H](NC(=O)CCCC(=O)N/N=C/c1ccc(Cl)cc1C(=O)O)[C@@H](C)O)C(=O)O [4-A144],–
1.54 ± 0.05 µM,–,CC(C)C[C@H](NC(=O)[C@H](CCCNC(=N)N)NC(=O)[C@@H](NC(=O)CCCC(=O)N/N=C/c1cccc(OC(C(=O)O)c2ccccc2)c1)[C@@H](C)O)C(=O)O (stereo partly drawn) [4-A161],–
